Structures are written as SMILES. A value given as a limit tells only on which side of the number the result lay.

The text below walks through data of patent US9096624B2 (OSI Pharmaceuticals, LLC, priority 2009, dated 2015).

The target in experiment [1] is T1, FAK (Homo sapiens, UniProt Q05397). Nature of the experiment: biochemical.
Experiment [2] concerns the target T1, FAK. Nature of the experiment: Cell-based capture ELISA for inhibition of FAK autophosphorylation [pY397] in MiaPaCa2 cells. The protocol: Cell-Based Assays for Inhibition of FAK Autophosphorylation: MiaPaCa2 and U87MG
ELISA kit from Invitrogen (KHO0441).
Reagents Provided in Biosource FAK [pY397]
The cells were then suspended in cell assay medium.

Experiment [3] concerns the target T1, FAK. As to the kind of experiment: Biochemical HTRF (FRET) assay of FAK kinase activity. The settings on record: 100 uM ATP; biotinylated PGT substrate; read-out: Mean FAK Biochem FRET IC50 (100 uM ATP). The protocol: Biochemical HTRF (FRET) Assay Protocol
The ability of compounds to inhibit the kinase activity of recombinant FAK enzyme was determined by a HTRF (FRET) assay using Biotinylated PGT (B*PGT) as a peptide substrate. […] The reaction is stopped after 1 h and phosphotyrosine content of Biotin*PGT is measured using anti-phosphotyrosine specific Mab label with Eu3+-cryptate (Cisbio) and XL665 labeled streptavidin (Cisbio) by Homogeneous Time-Resolved Fluorescence (HTRF) method.
The Stock Reagents used are as follows:
Enzyme Buffer Reaction Buffer plus 0.03% BSA.
Development Buffer: 1 part 200 mM EDTA/50 mM Tris-HCl pH 7.4; 2 parts 1M KF; 0.07% BSA.
Assay Protocol: The compounds were serially diluted from 10 uM to […] (1:5 dil, 10 points) in kinase buffer (1×) containing 3% DMSO and added 5 uL to each well of a 384-well plate except negative and positive control wells. Only DMSO was added to positive and negative control wells. For negative control wells, no ATP was added but only 5 uL of B*PGT was added. B*PGT (final conc 7.5 ng/well) and ATP (final conc 100 uM) was added in 5 uL to all wells except negative control wells. Reaction was started by adding FAK enzyme (final conc 0.2 ng/well) in 5 ul of enzyme buffer per well and incubated at RT for 1 h. Phospho-tyrosine content of B*BGT was detected by adding PT66-Cryptate (1:100 dil) and XL665 conjugated streptavidin (1:100 dil) to each well in 7.5 uL development buffer and incubating for 1 h at RT. The plate was read on Victor machine

Setting [4] is: MIA-PaCa2 cells on fibronectin, 2 h, no plasma, read-out: Mean FAK Cell Mechanistic IC50 MIA-PaCa2.
The mark [5] stands for this setting: MIA-PaCa2 cells, + 50% human plasma, read-out: Mean FAK Cell Mechanistic IC50 + 50% hP MIA-PaCa2.
Where [6] appears, read: MIA-PaCa2 cells, + 50% mouse plasma (Table 2), read-out: Mean FAK Cell Mechanistic IC50 + 50% mP MIA-PaCa2.

T1 sequence (Q05397 whole entry): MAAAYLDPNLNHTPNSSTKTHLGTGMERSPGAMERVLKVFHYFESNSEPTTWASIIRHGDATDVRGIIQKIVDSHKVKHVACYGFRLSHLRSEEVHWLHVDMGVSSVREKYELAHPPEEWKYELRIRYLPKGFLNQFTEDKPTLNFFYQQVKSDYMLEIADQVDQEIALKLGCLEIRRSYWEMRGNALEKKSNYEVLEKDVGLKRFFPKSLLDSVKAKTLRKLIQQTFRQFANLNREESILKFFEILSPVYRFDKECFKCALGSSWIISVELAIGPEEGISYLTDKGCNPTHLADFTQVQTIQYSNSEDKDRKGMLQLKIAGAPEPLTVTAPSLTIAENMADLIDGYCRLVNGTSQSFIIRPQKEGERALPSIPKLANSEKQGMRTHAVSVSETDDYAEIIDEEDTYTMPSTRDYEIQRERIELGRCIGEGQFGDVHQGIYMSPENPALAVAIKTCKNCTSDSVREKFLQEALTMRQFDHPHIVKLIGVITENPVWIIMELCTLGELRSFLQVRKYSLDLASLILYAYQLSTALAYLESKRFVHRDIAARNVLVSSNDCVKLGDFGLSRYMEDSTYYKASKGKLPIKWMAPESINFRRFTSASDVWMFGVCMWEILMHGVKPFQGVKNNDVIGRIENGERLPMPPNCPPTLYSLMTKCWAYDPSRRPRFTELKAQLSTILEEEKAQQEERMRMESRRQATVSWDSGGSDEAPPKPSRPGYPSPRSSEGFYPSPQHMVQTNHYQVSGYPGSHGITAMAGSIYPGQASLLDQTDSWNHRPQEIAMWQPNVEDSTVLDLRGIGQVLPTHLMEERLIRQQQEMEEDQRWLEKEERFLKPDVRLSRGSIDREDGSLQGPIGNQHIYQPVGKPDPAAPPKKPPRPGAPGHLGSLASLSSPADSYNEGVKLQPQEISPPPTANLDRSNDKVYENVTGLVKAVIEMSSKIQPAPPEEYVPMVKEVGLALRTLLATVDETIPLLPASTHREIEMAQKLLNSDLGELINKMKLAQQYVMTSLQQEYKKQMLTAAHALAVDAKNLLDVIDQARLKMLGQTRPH

As for `CCOP(=O)(Cc1ccc(Nc2ncc(C(F)(F)F)c(NCc3cccnc3N(C)S(C)(=O)=O)n2)cc1)OCC` [Example 1, diethyl [4-({4-[({2-[methyl(methylsulfonyl)amino]pyridin-3-yl}methyl)amino]-5-(trifluoromethyl)pyrimidin-2-yl}amino)benzyl]phosphonate], the IC50 against FAK [1], on FAK [2] (setting [4]), on FAK [2] (setting [5]) and on FAK [3] was below 1000 nM in each case.

Turning to `CCOP(=O)(OCC)c1ccc(Nc2ncc(C(F)(F)F)c(NCc3cccnc3N(C)S(C)(=O)=O)n2)cc1` [Example 2, Diethyl [4-({4-[({2-[methyl(methylsulfonyl)amino]pyridin-3-yl}methyl)amino]-5-(trifluoromethyl)pyrimidin-2-yl}amino)phenyl]phosphonate], the IC50 on FAK [3] lay in the range of 1000 to 10000 nM.

For the molecule `CCOP(=O)(Cc1cccc(Nc2ncc(C(F)(F)F)c(NCc3cccnc3N(C)S(C)(=O)=O)n2)c1)OCC` [Example 4, Diethyl [3-({4-[({2-[methyl(methylsulfonyl)amino]pyridin-3-yl}methyl)amino]-5-(trifluoromethyl)pyrimidin-2-yl}amino)benzyl]phosphonate], the IC50 on FAK [1] is below 1000 nM; on FAK [2] (setting [4]), 1000 to 10000 nM; on FAK [2] (setting [5]) it was 1000 to 10000 nM; on FAK [3] it was 1000 to 10000 nM.

Turning to `CCOP(=O)(OCC)C(C)c1ccc(Nc2ncc(C(F)(F)F)c(NCc3cccnc3N(C)S(C)(=O)=O)n2)cc1` (stereo not drawn) [Example 5, Diethyl {1-[4-({4-[({2-[methyl(methylsulfonyl)amino]pyridin-3-yl}methyl)amino]-5-(trifluoromethyl)pyrimidin-2-yl}amino)phenyl]ethyl}phosphonate], the IC50 on FAK [2] (setting [4]), on FAK [2] (setting [5]) and on FAK [3] was below 1000 nM each time.

`CN(c1ncccc1CNc1nc(Nc2ccc(P(=O)(O)O)cc2)ncc1C(F)(F)F)S(C)(=O)=O` [Example 6, [4-({4-[({2-[Methyl(methylsulfonyl)amino]pyridin-3-yl}methyl)amino]-5-(trifluoromethyl)pyrimidin-2-yl}amino)phenyl]phosphonic acid]: the figures for the 50% inhibitory concentration (IC50) against FAK [1], at FAK [2] (setting [4]) and at FAK [3] were below 1000 nM, 1000 to 10000 nM and below 1000 nM, respectively.

For `CCOP(=O)(OCC)C(C)(C)c1ccc(Nc2ncc(C(F)(F)F)c(NCc3cccnc3N(C)S(C)(=O)=O)n2)cc1` [Example 7], the IC50 on FAK [2] (setting [4]), on FAK [2] (setting [5]) and on FAK [3] was below 1000 nM each time.

As to `CC(C)OP(=O)(Cc1ccc(Nc2ncc(C(F)(F)F)c(NCc3cccnc3N(C)S(C)(=O)=O)n2)cc1)OC(C)C` [Example 27, dipropan-2-yl [4-({4-[({2-[methyl(methylsulfonyl)amino]pyridin-3-yl}methyl)amino]-5-(trifluoromethyl)pyrimidin-2-yl}amino)benzyl]phosphonate], the IC50 on FAK [2] (setting [4]), on FAK [2] (setting [5]), at FAK [2] (setting [6]) and at FAK [3] was 1000 to 10000 nM in each case.

Consider `CN(c1ncccc1CNc1nc(Nc2ccc(CP(=O)(O)O)cc2)ncc1C(F)(F)F)S(C)(=O)=O` [Example 41, [4-({4-[({2-[Methyl(methylsulfonyl)amino]pyridin-3-yl}methyl)amino]-5-(trifluoromethyl)pyrimidin-2-yl}amino)benzyl]phosphonic acid], for which the IC50 against FAK [1] was below 1000 nM; at FAK [2] (setting [4]), 1000 to 10000 nM; on FAK [2] (setting [5]) it was 1000 to 10000 nM; at FAK [2] (setting [6]), 1000 to 10000 nM; on FAK [3], 1000 to 10000 nM.

As to `CCOP(C)(=O)Cc1cccc(Nc2ncc(C(F)(F)F)c(NCc3cccnc3N(C)S(C)(=O)=O)n2)c1` (stereo not drawn) [Example 46, Ethyl methyl[3-({4-[({2-[methyl(methylsulfonyl)amino]pyridin-3-yl}methyl)amino]-5-(trifluoromethyl)pyrimidin-2-yl}amino)benzyl]phosphinate], the IC50 was below 1000 nM at FAK [2] (setting [4]), below 1000 nM at FAK [2] (setting [5]) and 1000 to 10000 nM on FAK [3].
